Assay [1] concerns the target T1, Renilla luciferase (RLuc) (Renilla reniformis, UniProt P27652).
T1 sequence (P27652 1-311): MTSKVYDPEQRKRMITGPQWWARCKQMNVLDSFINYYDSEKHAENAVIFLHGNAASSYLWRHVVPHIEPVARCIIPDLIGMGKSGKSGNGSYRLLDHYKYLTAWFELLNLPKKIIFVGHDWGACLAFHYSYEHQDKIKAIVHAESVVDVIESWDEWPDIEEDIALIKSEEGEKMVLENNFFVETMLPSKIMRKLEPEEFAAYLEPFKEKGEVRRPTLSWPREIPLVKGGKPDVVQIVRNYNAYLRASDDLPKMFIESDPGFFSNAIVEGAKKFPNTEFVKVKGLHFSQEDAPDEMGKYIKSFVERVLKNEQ
Put plainly: RLuc enzymatic assay (purified enzyme, qHTS, 1536-well). It is filed as biochemical. The conditions noted are these: 1 nM RLuc, 5 µM coelenterazine-H. The method, then:
1 µL of purified luciferase was then dispensed into each well for final concentrations 10 nM FLuc or 1 nM RLuc. The bioluminescence outputs were measured by an EnVision reader (PerkinElmer, Wellesley, MA). Due to the relatively short luminescence duration of the RLuc assay, dispense time constants were set to match closely to the read time of the plate reader. As a result, each individual well was read with approximately the same time delay from reagent dispense to signal acquisition. See Table 1 for the 1536-well assay protocols.
(§1) Data from each assay was normalized plate-wise to corresponding intraplate controls as described previously, [17]. The same control data sets were also used for the calculation of Z′ factors from each assay. In all assays, wells containing DMSO were used as no-response controls. For the FLuc enzymatic assay, each compound-treated well on the plate was normalized to the average readings of n = 24 PTC124 treated wells and n = 48 DMSO wells from the same plate. Wells were scaled to a full range of DMSO and zero, and then normalized using the maximum response observed in the screen as 100% activity. For the RLuc enzymatic assay, n = 24 BTS treated wells for the positive control, n = 48 DMSO. MSR values were calculated using the cumulative potency differences of the de-interleaved duplicate control titrations from each plate as previously described. The normalized data from each assay plate set was corrected using DMSO-only treated assay plates read at the start and end of each assay run, and the resulting inter-plate titration data fit, using in-house software, to the standard Hill equation and dose-response curves automatically classified as described previously.
(§2) The curve classification scheme for assignment of resulting curve-fit data into CRC classes was according to Inglese et al. as follows: class 1 curves (far left) display two asymptotes, an inflection point, and r^2≥0.9; subclasses 1a vs. 1b are differentiated by full (>80%) vs. partial (≤80%) response. Class 2 curves (second from left) display a single left-hand asymptote and inflection point; subclasses 2a (or 2.1) and 2b (2.2) are differentiated by a max response and r^2, >80% and >0.9 or <80% and <0.9, respectively. Class 3 curves (second from right) have a single left-hand asymptote, no inflection point, and a response >3SD from the mean activity of the sample field.
A general note: In qHTS, concentration-response curves come from the screen itself.

For assay [2], the target named is firefly luciferase, Photinus pyralis (FLuc) (Photinus pyralis, UniProt P08659). Put plainly: biochemical. The note with it: for FLuc Parameters Hill Coef: Hill equation fit of CRC; for Emax: response relative to PTC124 control inhibitor, negative = inhibition, read-out: FLuc Parameters Efficacy. It is filed as biochemical. The method, then:
The bioluminescence outputs were measured by an EnVision reader (PerkinElmer, Wellesley, MA). Due to the relatively short luminescence duration of the RLuc assay, dispense time constants were set to match closely to the read time of the plate reader. As a result, each individual well was read with approximately the same time delay from reagent dispense to signal acquisition. See Table 1 for the 1536-well assay protocols.
as §1, §2

In another assay the test system is VEGFR. On the set-up: method as in Sammond, D.M., et al. 2005. The conditions noted are these: ref Sammond, D.M., et al. 2005; read-out: PKI IC50 (µM), VEGFR; cited from earlier work.
The test system of a further assay is VEGFR2. The conditions noted are these: ref Harris, P.A., et al. 2005; read-out: PKI IC50 (µM), VEGFR2; cited from earlier work.
In the next assay the test system is RHO. On the set-up: method as in Stavenger, R. A., et al. 2007. The note with it: ref Stavenger, R. A., et al. 2007; read-out: PKI IC50 (µM), RHO; cited from earlier work.
For a further assay, the system named is CDK. Details: method as in Stevens, K. L., et al. 2008. The note with it: ref Stevens, K. L., et al. 2008; read-out: PKI IC50 (µM), CDK; cited from earlier work.
A further assay deals with CDK2. The conditions noted are these: ref Bramson, H. N., et al., 2001; read-out: PKI IC50 (µM), CDK2; cited from earlier work.
The next assay concerns p38. On the set-up: method as in Angell, R.M., et al. 2008. The note with it: ref Angell, R.M., et al. 2008; read-out: PKI IC50 (µM), p38; cited from earlier work.
Setting [3] is: 10 nM FLuc, 10 µM D-luciferin, 10 µM ATP, read-out: FLuc Parameters IC50.
Where [4] appears, read: Figure 4b, read-out: FLuc (IC50).

Here are results for six compounds from PMC3591448, “Profile of the GSK Published Protein Kinase Inhibitor Set Across ATP-Dependent and-Independent Luciferases: Implications for Reporter-Gene Assays” (PLoS ONE, 2013).

The structures appear in SMILES notation. Like-named read-outs stand apart in the source and are kept apart here.

Sequence of firefly luciferase, Photinus pyralis (FLuc) (P08659 whole entry): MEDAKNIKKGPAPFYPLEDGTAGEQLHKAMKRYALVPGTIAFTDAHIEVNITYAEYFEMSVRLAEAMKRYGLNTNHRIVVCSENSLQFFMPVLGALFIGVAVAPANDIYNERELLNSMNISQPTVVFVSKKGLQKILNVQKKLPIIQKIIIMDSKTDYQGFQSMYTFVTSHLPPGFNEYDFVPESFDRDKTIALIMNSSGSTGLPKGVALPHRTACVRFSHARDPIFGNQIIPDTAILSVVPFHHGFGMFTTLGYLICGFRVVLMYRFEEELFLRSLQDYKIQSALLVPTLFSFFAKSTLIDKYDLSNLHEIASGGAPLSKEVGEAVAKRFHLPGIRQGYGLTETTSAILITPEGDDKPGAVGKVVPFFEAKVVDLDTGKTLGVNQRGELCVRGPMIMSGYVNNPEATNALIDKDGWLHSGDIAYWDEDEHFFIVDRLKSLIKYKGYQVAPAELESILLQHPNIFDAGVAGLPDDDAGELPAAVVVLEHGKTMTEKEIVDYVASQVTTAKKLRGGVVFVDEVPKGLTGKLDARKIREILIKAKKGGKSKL

For orientation: IC50 means the concentration that gives 50% inhibition. `CN(c1ccc(NC(=O)Nc2c(Cl)cccc2Cl)cc1)c1ccnc(Nc2cccc(CS(C)(=O)=O)c2)n1` [GW809897X]: in assay [1], the “RLuc Curve Class” value came out at 4. For the same compound, the IC50 in assay [2] (setting [3]) was 580 nM; in assay [2] (setting [4]) it was 560 nM; in assay [2] (Table 3, read-out: FLuc IC50), 580 nM; in the assay on VEGFR, 0.065 µM. Further, in assay [2], the “FLuc Parameters Hill Coef” value stood at 1.11. Moreover, the Emax in assay [2] turned out to be 109%.
For `COc1ccccc1Nc1ncc(-c2ccccc2)o1` [GW577921A], the “RLuc Curve Class” value in assay [1] came to 4. Besides, the IC50 is 0.38 µM in the assay on VEGFR2; 1030 nM in assay [2] (setting [3]); 1030 nM in assay [2] (Table 3, read-out: FLuc IC50). The “FLuc Parameters Hill Coef” value in assay [2] is given as 1. The Emax in assay [2] was 102%.
On to `CCn1c(-c2nonc2N)nc2cnc(Oc3cccc(NC(=O)c4ccc(N(C)C)cc4)c3)cc21` [GSK248233A], for which, in assay [1], the “RLuc Curve Class” value came out at 4. Moreover, the IC50 was 1030 nM in assay [2] (setting [3]); 1000 nM in assay [2] (setting [4]); 1030 nM in assay [2] (Table 3, read-out: FLuc IC50); 0.002 µM with RHO. Moreover, the “FLuc Parameters Hill Coef” value in assay [2] came to 0.9. Moreover, in assay [2], the Emax turned out to be 98.9%.
Turning to `c1cc(-c2cnn3nc(N4CCOCC4)ccc23)nc(NC2CC2)n1` [GW708336X], in assay [1], the “RLuc Curve Class” value was 4. The IC50 is 4610 nM in assay [2] (setting [3]); 5000 nM in assay [2] (Figure 2b, representative structures of clusters, read-out: FLuc IC50); 4610 nM in assay [2] (Table 3, read-out: FLuc IC50); 0.4 µM in the assay with CDK. Besides, in assay [2], the “FLuc Parameters Hill Coef” value is given as 1. The Emax in assay [2] was found to be 108%.
As for `C/C(Nc1ccc(S(N)(=O)=O)cc1)=C1/C(=O)Nc2ccccc21` [GW335962X], in assay [1], the “RLuc Curve Class” value is reported as 4. Also, the IC50 in assay [2] (setting [3]) is 3660 nM; in assay [2] (Table 3, read-out: FLuc IC50) it was 3660 nM; in the assay on CDK2, 0.36 µM. The “FLuc Parameters Hill Coef” value in assay [2] came to 1.51. Further, the Emax in assay [2] worked out at 68.8%.
For `O=C(NCC1CC1)c1ccc(-c2cccc(C(=O)NC3CC3)c2)cc1` [GW806776X], the IC50 was 9190 nM in assay [2] (setting [3]); 9190 nM in assay [2] (Table 3, read-out: FLuc IC50); 0.075 µM with p38. For the same compound, in assay [2], the “FLuc Parameters Hill Coef” value turned out to be 1.51. Also, the Emax in assay [2] is 35.2%.
